According to US20240166626A1, “Compounds and Methods for Preventing, Treating, or Ameliorating Airway Disease” (THOMAS JEFFERSON UNIVERSITY, priority 2021, published 2024):

Target: β2AR (Homo sapiens, UniProt P07550)
Assay: BRET analysis of β-arrestin2 binding to the β2AR in HEK 293 cells
Type: cell-based
Protocol: Schematic of screening methodologies for cAMP production and β-arrestin binding. Cells were treated with the unbiased beta-agonist isoproterenol (ISO)±test compounds. The primary high throughput screen utilized a luciferase-based cAMP biosensor, GLOSENSORTM (Promega), and an enzyme complementation-based assay, […]® (DiscoveRx). Independent secondary screening utilized a cAMP ELISA and BRET for β-arrestin recruitment. […] Secondary screen for cAMP production by ELISA. […] Cells were lysed and cAMP production was measured. […] Dose response curve for DFPQ as measured by BRET. […] Data for dose response curve was taken 12 min post ISO addition. n=3. […] Cells were lysed and cAMP production was measured by ELISA. […] Cells were read every 2 min post agonist addition. […] Cells were read every three minutes for 18 minutes on a PolarStar Optima plate reader (BMG) to establish peak signal. […] Luminescence was determined at room temperature (23-25° C.) on a PolarStar Optima plate reader (BMG). […] Relative assay bias was calculated from the ratio of normalized cAMP and arrestin recruitment responses. […] BRET was measured using a Tecan Infinite F500 microplate reader. […] Bound [35 S]GTPγS was collected by rapid filtration on GF/B filters, washed 4 times with 4 ml of cold GTPγS wash buffer and analyzed by liquid scintillation counting. […] Band intensity was measured by densitometry using ImageJ. […]

Sequence of β2AR (P07550 whole entry): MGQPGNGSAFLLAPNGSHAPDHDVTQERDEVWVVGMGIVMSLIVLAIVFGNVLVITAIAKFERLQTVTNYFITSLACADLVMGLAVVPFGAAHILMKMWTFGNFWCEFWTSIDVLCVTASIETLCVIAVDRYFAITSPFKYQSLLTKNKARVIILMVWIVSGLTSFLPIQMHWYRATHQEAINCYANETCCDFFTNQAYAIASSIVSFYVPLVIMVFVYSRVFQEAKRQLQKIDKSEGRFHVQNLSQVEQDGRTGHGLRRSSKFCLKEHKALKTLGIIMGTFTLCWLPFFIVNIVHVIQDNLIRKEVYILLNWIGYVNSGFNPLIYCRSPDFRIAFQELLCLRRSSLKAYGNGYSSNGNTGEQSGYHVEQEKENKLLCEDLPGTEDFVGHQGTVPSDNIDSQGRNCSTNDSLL

Fc1ccc(Nc2nc(NC3CCCCC3)c3ccccc3n2)cc1F [DFPQ, N^4-cyclohexyl-N^2-(3,4-difluorophenyl)quinazoline-2,4-diamine]
β-arrestin2 recruitment to the β2AR (10 μM DFPQ, over the measured time course, FIG. 2A): fully inhibited | mode of inhibition, global curve fitting and Schild analysis of ISO dose response curves (β-arrestin recruitment readout, FIG. 1D): non-competitive inhibition
